Test results from BindingDB's records for patent US10710978 (DANA-FARBER CANCER INSTITUTE, INC.; FONDAZIONE CENTRO SAN …, 2020).

Target: T1, Serine/threonine-protein kinase 4 (Human, UniProt Q13043)
T1 sequence (Q13043 whole entry): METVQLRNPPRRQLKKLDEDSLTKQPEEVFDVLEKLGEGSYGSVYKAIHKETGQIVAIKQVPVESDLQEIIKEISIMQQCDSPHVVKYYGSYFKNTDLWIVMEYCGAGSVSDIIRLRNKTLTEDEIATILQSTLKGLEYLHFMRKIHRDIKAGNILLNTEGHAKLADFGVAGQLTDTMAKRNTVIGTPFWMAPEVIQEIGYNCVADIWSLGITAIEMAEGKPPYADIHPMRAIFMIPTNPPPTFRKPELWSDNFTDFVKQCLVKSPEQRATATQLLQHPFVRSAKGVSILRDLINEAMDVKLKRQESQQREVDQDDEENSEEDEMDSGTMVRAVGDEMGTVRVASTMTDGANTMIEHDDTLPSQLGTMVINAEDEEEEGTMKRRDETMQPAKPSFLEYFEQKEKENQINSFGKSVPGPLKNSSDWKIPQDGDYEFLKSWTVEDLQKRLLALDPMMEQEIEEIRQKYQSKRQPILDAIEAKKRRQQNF
Test: Biochemical Assay
Procedure: Biochemical IC50s were measured at Invitrogen using Z-lyte technology. Briefly, for STK4, the 2×STK4 (MST1)/Ser/Thr 07 mixture was prepared in 50 mM HEPES pH 7.5, 0.01% BRIJ35, 10 mM MgCl2, 1 mM EGTA. The final 10 μL Kinase Reaction consisted of 6.25-160 ng STK4 (MST1) and 2 μM Ser/Thr 07 in 50 mM HEPES pH 7.5, 0.01% BRIJ-35, 10 mM MgCl2, 1 mM EGTA. After the 1 hour Kinase Reaction incubation, 5 μL of a 1:100000 dilution of Development Reagent A was added. Compounds were screened in a 10 point titration with 3-fold serial dilutions starting at a concentration of 10 μM. The biochemical IC50s against other STK family members were measured similarly. The ATP concentration used matched the Km for each kinase.

IC50 | SMILES
< 0.04 µM | Nc1ncc(-c2cccc3sccc23)cc1-c1ccc2c(c1)CCNC2=O [US10710978, Compound I-15]
< 0.04 µM | Cc1cc(S(=O)(=O)N(C)C2CC2)ccc1-c1cnc(N)c(-c2ccc3c(c2)CCNC3=O)c1 [US10710978, Compound I-46]
